Experiments:
[1] = test system: cancer cells; assay: Inhibition of cancer growth, cancer invasion, cell invasion or cancer cell invasion; format: cell-based
From the text: The program is based on our purification methods and biological assays including the MTT assay. See International Application No. PCT/US05/31900, filed Sep. 7, 2005, U.S. Serial No. 11/289,142, filed Nov. 28, 2005, and U.S. Serial No. 11/131551, filed May 17, 2005, and PCT/US2008/002086, 1188-ALA-PCT, filed Feb. 15, 2008, 12/344,682, 1020-B1-US, filed Dec. 29, 2008. The details of Analysis of gene expression of ES2 cells after Y-treatment by Microarray, Data Analysis Methods and Western blot in PCT/US2008/002086, 1188-ALA-PCT, filed Feb. 15, 2008, and the cell invasion experiments methods in International Application PCT/US2010/0042240, filed Jul. 16, 2010.

[2] = test system: ANGPT2, DDIT3, LIF and NFKB1Z; conditions: Real-time PCR; results in Table 19-21 of PCT/US09/34115; cited from earlier work
[3] = test system: Erythrocytes (RBC); assay: The haemolytic assay; conditions: in words, no concentration given

Structure (SMILES)	inhibiting cancer growth, cancer invasion, cell invasion or cancer cell invasion [1]	expression of the genes ANGPT2, DDIT3, LIF and NFKB1Z [2]	hemolytic activity [3]
C/C=C(/C)C(=O)O[C@H]1[C@H](OC(=O)/C(C)=C\C)[C@@]2(CO)C(CC1(C)C)C1=CCC3[C@@]4(C)CC[C@H](O)C(C)(C)C4CC[C@@]3(C)[C@]1(C)[C@@H](O)[C@H]2O (stereo partly shown) [ACH-Y3]	has the ability to inhibit	increase	less potent
C/C=C(/C)C(=O)O[C@H]1[C@H](OC(=O)/C(C)=C\C)[C@@]2(CO)C(CC1(C)C)C1=CCC3[C@@]4(C)CC[C@H](O[C@@H]5OC(C(=O)O)[C@@H](O)[C@@H](O[C@@H]6O[C@@H](CO)[C@@H](O)C6O)C5O[C@@H]5OC(CO)[C@H](O)[C@@H](O)C5O)C(C)(C)C4CC[C@@]3(C)[C@]1(C)[C@@H](O)[C@H]2O (stereo partly drawn) [Compound Y, 3-O-[β-D-galactopyranosyl (1→2)]-α-L-arabinofuranosy (1→3)-β-D-glucuronopyranosyl-21,22-O-diangeloyl-3β, 15α, 16α, 21β, 22α, 28-hexahydroxyolean-12-ene]	–	increase	–
